{
  "source": "patent US5079241A",
  "about": "“Cephalosporin derivatives and pharmaceutical compositions in which they are present” (Sanofi, priority 1987, dated 1992)",
  "key": {"Staph. aureus Smith": {"tested_on": "Staph. aureus Smith", "assay": "bacteriostatic action in vitro by the dilution method (MIC)", "format": "cell-based", "settings": "Staphylococcus aureus, read-out: minimum inhibitory concentrations (MIC)", "description": "(§1) The bacteriostatic action was determined in vitro by the dilution method. The study was carried out on both Gram-positive strains and Gram-negative strains.\n(§2) The results for various products according to the invention, expressed as minimum inhibitory concentrations (MIC - μg/ml), are collated in Table 3."}, "[1]": {"tested_on": "Klebsiella pneumoniae R30", "assay": "bacteriostatic action in vitro by the dilution method (MIC)", "format": "cell-based", "settings": "read-out: minimum inhibitory concentrations (MIC)", "description": "as §1, §2"}, "[2]": {"tested_on": "Proteus vulgaris GN 76/C-1", "assay": "bacteriostatic action in vitro by the dilution method (MIC)", "format": "cell-based", "settings": "GN76, read-out: minimum inhibitory concentrations (MIC)", "description": "as §1, §2"}, "[3]": {"tested_on": "Pseudomonas aeruginosa NCTC 8203", "assay": "bacteriostatic action in vitro by the dilution method (MIC)", "format": "cell-based", "settings": "NCTC8203, read-out: minimum inhibitory concentrations (MIC)", "description": "as §1, §2"}, "[4]": {"tested_on": "Escherichia coli SOL RL 90", "assay": "bacteriostatic action in vitro by the dilution method (MIC)", "format": "cell-based", "settings": "SOLRL90, read-out: minimum inhibitory concentrations (MIC)", "description": "as §1, §2"}, "Providencia 155": {"tested_on": "Providencia 155", "assay": "bacteriostatic action in vitro by the dilution method (MIC)", "format": "cell-based", "settings": "read-out: minimum inhibitory concentrations (MIC)", "description": "as §1, §2"}, "[5]": {"tested_on": "Escherichia coli C1/Col E1::Tn3", "assay": "bacteriostatic action in vitro by the dilution method (MIC)", "format": "cell-based", "settings": "read-out: minimum inhibitory concentrations (MIC)", "description": "as §1, §2"}, "[6]": {"assay": "protein binding by comparing two standard scales in baboon plasma and phosphate buffer", "format": "in vitro ADME", "settings": "baboon plasma vs phosphate buffer (pH 7, 0.03M)", "excerpt": "Furthermore, the protein binding is obtained by comparing two standard scales, one being prepared in baboon plasma and the other in phosphate buffer (pH 7, 0.03M)."}, "[7]": {"assay": "pharmacokinetic behavior in baboons, 20 mg/kg (Tables 4 and 6)", "format": "in vivo", "settings": "baboon; for Cmax: read-out: Max plasma concentration; for AUC(0-t) at 6 h: trapezium method; for concentration at 0.5 h: 30 minutes; for concentration at 0.75 h: 45 minutes; for concentration at 1 h: 60 minutes; for concentration at 1.5 h: 90 minutes; for concentration at 2 h: 120 minutes; for concentration at 3 h: 180 minutes; for concentration at 4 h: 240 minutes; for concentration at 5 h: 300 minutes; for concentration at 5.5 h: 330 minutes; for dose excreted at 6 h: urine, 6 h (Table 6), read-out: Excretion in the urine", "description": "Furthermore, the pharmacokinetic behavior of the products according to the invention was studied in baboons after administration at a dose of 20 mg/kg by intramuscular injection or intravenous injection.\nBlood samples taken at various times after administration are used to determine the plasma concentration of the product studied by microbiological assay.\nIt is thus possible to construct the curve showing the plasma concentration as a function of time, and to determine different pharmacokinetic parameters of the compound studied:\nthe elimination half-life (t1/2 β) is calculated by the formula [formula] in which β represents the elimination gradient or slope;\nthe area under the curve (AUC) is determined by the trapezium method.\nThe plasma concentrations obtained with various products of the invention are collated in Tables 4 and 5. They are expressed in μg/ml."}, "[8]": {"settings": "plasma, 20 mg/kg, 20 mg/kg (Table 6), read-out: Plasma concentration at 6 h"}, "[9]": {"settings": "plasma, 20 mg/kg, 360 minutes, read-out: plasma concentration"}},
  "note": "Like-named read-outs stand apart in the source and are kept apart here.",
  "data": [
    {"molecule": "CC(C)(O/N=C(\\C(=O)NC1C(=O)N2C(C(=O)O)=C(COC(=O)c3ccc(NC(=O)CCN)c(O)c3)CSC12)c1csc(N)n1)C(=O)O", "note": "(centres unmarked) [SR 43904]", "values": [
      {"measurement": "MIC", "setting": "Staph. aureus Smith", "result": 4, "unit": "µg/mL"},
      {"measurement": "MIC", "setting": "[1]", "result": 1, "unit": "µg/mL"},
      {"measurement": "MIC", "setting": "[2]", "result": 0.25, "unit": "µg/mL"},
      {"measurement": "MIC", "setting": "[3]", "result": 1, "unit": "µg/mL"},
      {"measurement": "MIC", "setting": "[4]", "result": 2, "unit": "µg/mL"},
      {"measurement": "MIC", "setting": "Providencia 155", "result": 1, "unit": "µg/mL"},
      {"measurement": "MIC", "setting": "[5]", "result": 0.25, "unit": "µg/mL"},
      {"measurement": "fraction unbound", "setting": "[6]", "result": 0.29},
      {"measurement": "Tmax", "setting": "[7]; plasma, 20 mg/kg (Table 6)", "result": 1.5, "unit": "h"},
      {"measurement": "Cmax", "setting": "[7]; plasma, 20 mg/kg (Table 6)", "result": 94.1, "unit": "µg/mL"},
      {"measurement": "half-life", "setting": "[7]; plasma, 20 mg/kg (Table 6), read-out: t1/2 β", "result": 4.42, "unit": "h"},
      {"measurement": "AUC(0-t) at 6 h", "setting": "[7]; plasma, 20 mg/kg (Table 6)", "result": 348, "unit": "µg·h/mL"},
      {"measurement": "concentration at 6 h", "setting": "[7]; [8]", "result": 34.3, "unit": "µg/mL"},
      {"measurement": "concentration at 10 min", "setting": "[7]; plasma, 20 mg/kg", "result": 12.6, "unit": "µg/mL"},
      {"measurement": "concentration at 0.5 h", "setting": "[7]; plasma, 20 mg/kg", "result": 52.4, "unit": "µg/mL"},
      {"measurement": "concentration at 0.75 h", "setting": "[7]; plasma, 20 mg/kg", "result": 73, "unit": "µg/mL"},
      {"measurement": "concentration at 1 h", "setting": "[7]; plasma, 20 mg/kg", "result": 76.1, "unit": "µg/mL"},
      {"measurement": "concentration at 1.5 h", "setting": "[7]; plasma, 20 mg/kg", "result": 94.1, "unit": "µg/mL"},
      {"measurement": "concentration at 2 h", "setting": "[7]; plasma, 20 mg/kg", "result": 76.1, "unit": "µg/mL"},
      {"measurement": "concentration at 3 h", "setting": "[7]; plasma, 20 mg/kg", "result": 59.7, "unit": "µg/mL"},
      {"measurement": "concentration at 4 h", "setting": "[7]; plasma, 20 mg/kg", "result": 57.3, "unit": "µg/mL"},
      {"measurement": "concentration at 5 h", "setting": "[7]; plasma, 20 mg/kg", "result": 53.4, "unit": "µg/mL"},
      {"measurement": "concentration at 5.5 h", "setting": "[7]; plasma, 20 mg/kg", "result": 39.9, "unit": "µg/mL"},
      {"measurement": "concentration at 6 h", "setting": "[7]; [9]", "result": 34.3, "unit": "µg/mL"},
      {"measurement": "dose excreted at 6 h", "setting": "[7]; 20 mg/kg", "result": 17, "unit": "%"}
    ]},
    {"molecule": "CC(C)(O/N=C(\\C(=O)NC1C(=O)N2C(C(=O)O)=C(COC(=O)c3ccc(NC(=O)C(N)CCN)c(O)c3)CSC12)c1csc(N)n1)C(=O)O", "note": "(centres unmarked) [SR 44130]", "values": [
      {"measurement": "MIC", "setting": "Staph. aureus Smith", "result": 8, "unit": "µg/mL"},
      {"measurement": "MIC", "setting": "[1]", "result": 1, "unit": "µg/mL"},
      {"measurement": "MIC", "setting": "[2]", "result": 0.12, "unit": "µg/mL"},
      {"measurement": "MIC", "setting": "[3]", "result": 2, "unit": "µg/mL"},
      {"measurement": "MIC", "setting": "[4]", "result": 2, "unit": "µg/mL"},
      {"measurement": "MIC", "setting": "Providencia 155", "result": 1, "unit": "µg/mL"},
      {"measurement": "MIC", "setting": "[5]", "result": 0.25, "unit": "µg/mL"},
      {"measurement": "fraction unbound", "setting": "[6]", "result": 0.08},
      {"measurement": "Tmax", "setting": "[7]; plasma, 20 mg/kg (Table 6)", "result": 1.5, "unit": "h"},
      {"measurement": "Cmax", "setting": "[7]; plasma, 20 mg/kg (Table 6)", "result": 143, "unit": "µg/mL"},
      {"measurement": "AUC(0-t) at 6 h", "setting": "[7]; plasma, 20 mg/kg (Table 6)", "result": 707, "unit": "µg·h/mL"},
      {"measurement": "concentration at 6 h", "setting": "[7]; [8]", "result": 90.4, "unit": "µg/mL"},
      {"measurement": "concentration at 10 min", "setting": "[7]; plasma, 20 mg/kg", "result": 39.1, "unit": "µg/mL"},
      {"measurement": "concentration at 20 min", "setting": "[7]; plasma, 20 mg/kg, 20 minutes", "result": 60.9, "unit": "µg/mL"},
      {"measurement": "concentration at 0.5 h", "setting": "[7]; plasma, 20 mg/kg", "result": 81.9, "unit": "µg/mL"},
      {"measurement": "concentration at 0.75 h", "setting": "[7]; plasma, 20 mg/kg", "result": 105, "unit": "µg/mL"},
      {"measurement": "concentration at 1 h", "setting": "[7]; plasma, 20 mg/kg", "result": 122, "unit": "µg/mL"},
      {"measurement": "concentration at 1.5 h", "setting": "[7]; plasma, 20 mg/kg", "result": 143, "unit": "µg/mL"},
      {"measurement": "concentration at 2 h", "setting": "[7]; plasma, 20 mg/kg", "result": 142, "unit": "µg/mL"},
      {"measurement": "concentration at 3 h", "setting": "[7]; plasma, 20 mg/kg", "result": 138, "unit": "µg/mL"},
      {"measurement": "concentration at 4 h", "setting": "[7]; plasma, 20 mg/kg", "result": 135, "unit": "µg/mL"},
      {"measurement": "concentration at 5 h", "setting": "[7]; plasma, 20 mg/kg", "result": 109, "unit": "µg/mL"},
      {"measurement": "concentration at 5.5 h", "setting": "[7]; plasma, 20 mg/kg", "result": 93.8, "unit": "µg/mL"},
      {"measurement": "concentration at 6 h", "setting": "[7]; [9]", "result": 90.4, "unit": "µg/mL"},
      {"measurement": "dose excreted at 6 h", "setting": "[7]; 20 mg/kg", "result": 37, "unit": "%"}
    ]}
  ]
}
